The values that follow come from the SangsterLogP compilation.

Data set [1] can be described thus: method code SF-CR+AS, from Fauchere, J.; Pliska, V. (1983). Hydrophobic parameters of aminoacid side chains from the partitioning of N-acetylaminoacid amides. Eur J Med Chem, 18(4)369-375. The conditions noted are these: pH 7.1.
A short description of data set [2]: method code SF-RC, from Fauchere, J.; Pliska, V. (1983). Hydrophobic parameters of aminoacid side chains from the partitioning of N-acetylaminoacid amides. Eur J Med Chem, 18(4)369-375. The conditions noted are these: pH 7.1.

A word on the logD: it is lipophilicity at a set pH, counting ionised and neutral species. Read a high logD as higher lipophilicity. `CC(=O)NC(=O)C(N)CSSCC(N)C(=O)NC(C)=O` (configuration not stated) gave a logD in data set [1] of -1.7.

On to `CC(=O)NC(CC12CC3CC(CC(C3)C1)C2)C(N)=O` (configuration not stated), for which the logD in data set [2] was 1.9.

Compound `CC(=O)N[C@@H](Cc1cnc[nH]1)C(N)=O` displayed a logD in data set [2] of -1.7.

Compound `CC(=O)N[C@H](C(N)=O)C(C)C` had a log distribution coefficient (logD) in data set [2] of -0.61.

`CCC(C)C(NC(C)=O)C(N)=O` (configuration not stated): in data set [2], the logD is -0.03.

With `CC(=O)N[C@@H](CC(N)=O)C(N)=O`, the pH-dependent lipophilicity (logD) in data set [2] was -2.41.

As to `CC(=O)N1CCC[C@H]1C(N)=O`, in data set [2], the logD was -1.34.

`CC(=O)NC(C(N)=O)C(C)O` (configuration not stated): the logD in data set [2] was -1.57.

`CC(=O)N[C@@H](CO)C(N)=O` returned a logD in data set [2] of -1.87.

`CC(=O)N[C@@H](CC(C)C)C(N)=O` displayed a logD in data set [2] of -0.13.

`CC(=O)NC(CCC(N)=O)C(N)=O` (configuration not stated): the logD in data set [2] was -2.05.

Regarding `CC(=O)N[C@H](CS)C(N)=O`, the logD in data set [1] is -0.29.
